Measured values reported in patent publication US7811997B2, “Composition containing total triterpenoid sapogenins extracted from bamboo, and the preparation method and use thereof” (priority 2002, dated 2010).
Read-outs that look alike come from different tables or passages of the source.

What was measured:
Format in all cases: cell-based
A375 (human malanoma) = test: MTT proliferation inhibition, A375 cells; conditions: A375 cell; for inhibition at 7.5 µM / inhibition at 15 µM / inhibition at 30 µM / inhibition at 60 µM / inhibition at 120 µM / inhibition at 240 µM / inhibition at 480 µM / inhibition at 960 µM / IC50: Homo sapiens; for inhibition at 7.5 µM: 7.5 μmol/L; for inhibition at 7.5 µM / inhibition at 15 µM / inhibition at 30 µM / inhibition at 60 µM / inhibition at 120 µM / inhibition at 240 µM / inhibition at 480 µM / inhibition at 960 µM: read-out: Inhibitory rate (%); for inhibition at 15 µM: 15 μmol/L; for inhibition at 30 µM: 30 μmol/L; for inhibition at 60 µM: 60 μmol/L; for inhibition at 240 µM: 240 μmol/L; for inhibition at 480 µM: 480 μmol/L; for inhibition at 960 µM: 960 μmol/L; for IC50: A-375, MTT, Bliss method
Excerpt: (§1) The Silica Gel Column Chromatography and Countercurrent Chromatography preparation techniques were used to obtain Friedelin monomer extracted from EZR2002 for the sake of evaluating its anti-tumor activity further. The purity of this monomer determined by GC-MS analysis was 90.5%.
(§2) A375 (human malanoma), L929 (mouse lung epithelial tumor), Hela (human cervical tumor) and THP-1 (human macrophage tumor) cell lines were used for active filtration test in this experiment. Among these cell lines, A375, L929 and Hela were adherent cells while THP-1 was a kind of suspended cell.
(§3) All cells were maintained in the RPMI-1640 culture medium supplemented with 10% fetal calf serum, penicillin (100 U/mL), streptomycin (100 μg/mL) and 0.2% NaHCO3. These supplements were dissolved in deionized water and 0.22 μm filtration membrane was used for filter sterilization. The fetal calf serum was inactivated 30 min at 56° C. prior to an experiment. Cells were cultured in a humidified incubator of 5% CO2 at 37° C.
(§4) A375, L929 and Hela cells in logarithmic growth phases were seeded at a cell density of approximately 5×10^4 cells/mL in 96 pore plates (100 μL/well). Furthermore, THP-1 cell was seeded at a cell density of approximately 1×10^5 cells/mL because it was smaller than others. Samples were added in suspended cells after culturing 4 h and in adherent cells after culturing 12 h. Friedelin was dissolved in DMSO in advance and then in the culture medium with the ultrasonic treatment, where the final concentration of the solvent in the culture medium was <0.1% (v/v). Sample was added for 7.5, 15, 30, 60, 120, 240, 480 and 960 μmol/L. Each level had four parallel pores and a negative control. The cells were incubated for 24 and 48 h and then 15 μL/well MTT solvent (5 mg/mL) was added.
(§5) The cells were incubated for 48 h, followed by centrifugation at 1500 rpm for 5 min. The supernatant was removed and 150 μL/well DMSO was added, followed by micro-vibrator shocking for 10 min and crystal dissolving completely. The absorbance (OD value) was measured by enzyme-labeled meter at 492 nm. Furthermore, the inhibitory rate of cell proliferation and the IC50 value of friedelin were counted by using Bliss method.
(§6) The de-methyl-cantharidin was taken as the positive control and the inhibitory rate of A375, L929 and Hela cells were measured by adding de-methyl-cantharidin (120 μmol/L) for 24 and 48 h (Table 8). Furthermore, the corresponding data of Friedelin were counted.

[1] = system: Hela (human cervical tumor); test: MTT proliferation inhibition, Hela cells; conditions: Hela cell; for Inhibitory rate (%) / inhibition at 120 µM: 120 μmol/L; for inhibition at 7.5 µM / inhibition at 15 µM / inhibition at 30 µM / inhibition at 60 µM / inhibition at 120 µM / inhibition at 240 µM / inhibition at 480 µM / inhibition at 960 µM / IC50: Homo sapiens; for inhibition at 7.5 µM / inhibition at 15 µM / inhibition at 30 µM / inhibition at 60 µM / inhibition at 120 µM / inhibition at 240 µM / inhibition at 480 µM / inhibition at 960 µM: HeLa, read-out: Inhibitory rate (%); for inhibition at 7.5 µM: 7.5 μmol/L; for inhibition at 15 µM: 15 μmol/L; for inhibition at 30 µM: 30 μmol/L; for inhibition at 60 µM: 60 μmol/L; for inhibition at 240 µM: 240 μmol/L; for inhibition at 480 µM: 480 μmol/L; for inhibition at 960 µM: 960 μmol/L; for IC50: MTT, Bliss method
Excerpt: as §1, §2, §3, §4, §5, §6

[2] = system: L929 (mouse lung epithelial tumor); test: MTT proliferation inhibition, L929 cells; conditions: L929 cell; for Inhibitory rate (%) / inhibition at 120 µM: 120 μmol/L; for inhibition at 7.5 µM / inhibition at 15 µM / inhibition at 30 µM / inhibition at 60 µM / inhibition at 120 µM / inhibition at 240 µM / inhibition at 480 µM / inhibition at 960 µM / IC50: Mus musculus; for inhibition at 7.5 µM: 7.5 μmol/L; for inhibition at 7.5 µM / inhibition at 15 µM / inhibition at 30 µM / inhibition at 60 µM / inhibition at 120 µM / inhibition at 240 µM / inhibition at 480 µM / inhibition at 960 µM: read-out: Inhibitory rate (%); for inhibition at 15 µM: 15 μmol/L; for inhibition at 30 µM: 30 μmol/L; for inhibition at 60 µM: 60 μmol/L; for inhibition at 240 µM: 240 μmol/L; for inhibition at 480 µM: 480 μmol/L; for inhibition at 960 µM: 960 μmol/L; for IC50: MTT, Bliss method
Excerpt: as §1, §2, §3, §4, §5, §6

[3] = system: THP-1 (human macrophage tumor); test: MTT proliferation inhibition, THP-1 cells; conditions: THP-1 cell; for inhibition at 7.5 µM: 7.5 μmol/L; for inhibition at 7.5 µM / inhibition at 15 µM / inhibition at 30 µM / inhibition at 60 µM / inhibition at 120 µM / inhibition at 240 µM / inhibition at 480 µM / inhibition at 960 µM: read-out: Inhibitory rate (%); for inhibition at 15 µM: 15 μmol/L; for inhibition at 30 µM: 30 μmol/L; for inhibition at 60 µM: 60 μmol/L; for inhibition at 120 µM: 120 μmol/L; for inhibition at 240 µM: 240 μmol/L; for inhibition at 480 µM: 480 μmol/L; for inhibition at 960 µM: 960 μmol/L; for IC50: MTT, Bliss method
Excerpt: as §1, §2, §3, §4, §5

## C[C@H]1C(=O)CC[C@@H]2[C@]1(C)CC[C@H]1[C@@]2(C)CC[C@@]2(C)[C@@H]3CC(C)(C)CC[C@]3(C)CC[C@]12C [Friedelin, friedelin]
A375 (human malanoma); 48 h, 120 μmol/L
  Inhibitory rate (%): 88.6%
A375 (human malanoma); A-375, 24 h, 24 h
  inhibition at 7.5 µM: 0%
  inhibition at 15 µM: 6.43%
  inhibition at 30 µM: 0.43%
  inhibition at 60 µM: 14.1%
  inhibition at 240 µM: 44.8%
  inhibition at 480 µM: 63.3%
  inhibition at 960 µM: 60.4%
A375 (human malanoma); A-375, 24 h, 24 h, 120 μmol/L
  inhibition at 120 µM: 36.7%
A375 (human malanoma); A-375, 48 h, 48 h
  inhibition at 7.5 µM: 0.51%
  inhibition at 15 µM: 6.29%
  inhibition at 30 µM: 17.2%
  inhibition at 60 µM: 44.4%
  inhibition at 240 µM: 100%
  inhibition at 480 µM: 96.1%
  inhibition at 960 µM: 89.8%
A375 (human malanoma); A-375, 48 h, 48 h, 120 μmol/L
  inhibition at 120 µM: 88.6%
A375 (human malanoma); 24 h
  IC50: 357 µM
A375 (human malanoma); 48 h
  IC50: 61.5 µM
[1]; 24 h
  Inhibitory rate (%): 71.6%
  IC50: 61.2 µM
[1]; 48 h
  Inhibitory rate (%): 86.0%
  IC50: 64.7 µM
[1]; 24 h, 24 h
  inhibition at 7.5 µM: 35%
  inhibition at 15 µM: 34.7%
  inhibition at 30 µM: 33.3%
  inhibition at 60 µM: 43.4%
  inhibition at 120 µM: 71.6%
  inhibition at 240 µM: 88.2%
  inhibition at 480 µM: 88.1%
  inhibition at 960 µM: 73.8%
[1]; 48 h, 48 h
  inhibition at 7.5 µM: 20%
  inhibition at 15 µM: 17.2%
  inhibition at 30 µM: 24.6%
  inhibition at 60 µM: 41.4%
  inhibition at 120 µM: 86%
  inhibition at 240 µM: 99.5%
  inhibition at 480 µM: 98%
  inhibition at 960 µM: 92%
[2]; 24 h
  Inhibitory rate (%): 37.6%
  IC50: 665 µM
[2]; 48 h
  Inhibitory rate (%): 81.1%
  IC50: 36.9 µM
[2]; L929, 24 h, 24 h
  inhibition at 7.5 µM: 5.42%
  inhibition at 15 µM: 10.4%
  inhibition at 30 µM: 13.2%
  inhibition at 60 µM: 22.7%
  inhibition at 120 µM: 37.6%
  inhibition at 240 µM: 52.3%
  inhibition at 480 µM: 48.1%
  inhibition at 960 µM: 38.9%
[2]; L929, 48 h, 48 h
  inhibition at 7.5 µM: 17.3%
  inhibition at 15 µM: 21.6%
  inhibition at 30 µM: 38.8%
  inhibition at 60 µM: 66.8%
  inhibition at 120 µM: 81.1%
  inhibition at 240 µM: 99.5%
  inhibition at 480 µM: 98.2%
  inhibition at 960 µM: 89.9%
[3]; 24 h
  inhibition at 7.5 µM: 4.89%
  inhibition at 15 µM: 0%
  inhibition at 30 µM: 3.04%
  inhibition at 60 µM: 45.2%
  inhibition at 120 µM: 58.8%
  inhibition at 240 µM: 68.5%
  inhibition at 480 µM: 74.1%
  inhibition at 960 µM: 70.8%
  IC50: 85.1 µM
[3]; 48 h
  inhibition at 7.5 µM: 8.6%
  inhibition at 15 µM: 0%
  inhibition at 30 µM: 7.57%
  inhibition at 60 µM: 52.6%
  inhibition at 120 µM: 77.3%
  inhibition at 240 µM: 95%
  inhibition at 480 µM: 92.9%
  inhibition at 960 µM: 82.5%
  IC50: 58 µM
